# Assay results reported in patent US6211215A, “Heterocyclic compounds, their production and use” (Takeda Chemical Industries, Ltd., priority 1996, dated 2001).
# Test system: human prostate cancer cell line, LNCaP
# Assay: In vivo inhibition of prostate cancer (2)
# Parameters: species or system male Balb/C-strain athymic nude mice
# Details: for Tumor growth rate (%): 60 mg/kg/day, oral, 30 mg/kg twice daily for 21 days
# Experimental: 5,000,000 cells of human prostate cancer cell line, LNCaP, were suspended in a gelmatrix solution and implanted subcutaneously at the breast in 8-week old male Balb/C-strain athymic nude mice (Friedman R. et al., Proceedings of the National Academy of Sciences of the U.S.A. Vol. 87, pp.6698-6702, 1990). 33 days after the implantation, the diameters of tumors were measured. Five mice per group with similar tumor size were used for the experiment. Compound 8 of the present invention was suspended in a 5% gum arabic solution (physiological saline) and administered orally twice daily in a dose of 30 mg/kg body weight for 21 days. For another experiment, the mice were castrated 33 days after implantation of the cancer cell for observing the effect of hormone depletion on the prostate cancer growth. Furthermore, Compound 8 of the present invention was administered orally twice daily in a dose of 30 mg/kg body weight for 21 days to the castrated mice. After the completion of the dosing, the diameters of tumor were measured. The tumor volume was calculated by the following formula: volume of tumor=longest diameter×shortest diameter×shortest diameter×1/2. The growth rate of tumors was obtained as the proportion to the volume of tumor in the control animals in which only the gum arabic solution was administered. The body weights of mice administered with Compound 8 of the present invention were measured during the experiment to observe no decrease.
structure (smiles),measurement,setting,value
"C(=C\c1nc(COc2ccc(CCCn3ccnc3)cc2)co1)/c1ccccc1 [Compound 8, 4-[4-[3-(1-imidazolyl)propyl]phenoxymethyl]-2-[(E)-2-phenylethenyl]oxazole]",Tumor growth rate (%),castrated group (castrated without compound: 69),55%
same,Tumor growth rate (%),"non-castrated, tumor volume vs control",80%
same,Inhibition of implanted tumor growth,"LNCaP, athymic nude mice",inhibiting tumor growth of hormone dependent prostate cancer LNCaP
same,Effect of castration on tumor growth inhibiting effect,"LNCaP, castrated athymic nude mice",further enhanced when the hormone levels were reduced by castration
